Key:
[1] = literature (Gudmundson et al. 1966); cited from earlier work
[2] = test system: female Wistar rats; assay: randomized bioassay, effect on plasma calcium after tail vein injection (Example 2); format: in vivo
Protocol: After preliminary experiments had shown that the time courses of the effects of PDN 21 and human calcitonin (hCT) on plasma calcium were similar, peptide in acetate buffer was injected into the tail vein of female Wistar rats (mean wt 45 g, range 43―48, Oxfordshire Laboratory Animal Colonies (1976) Ltd.) and blood was taken from the aorta after 30 min in a randomized bioassay (Macintyre, I. Galante, L. S. & Hillyard, C. J. in Handbuch der inneren MedizinVllIA(eds) Kuhlen- cordt, F. & Bartelheimer, H. 623-634 (Springer-Verlag, Heidelberg, 1980)). Plasma calcium was measured colormetrically by the method of (Gindler, E. M. & King, J. D. Amer. J.Clin. Path. 58, 376―382 (1972)), and the values confirmed by atomic absorption spectrophotometry. The results are shown graphically in Figure 3. Each point is the mean from three rats 0 PDN-21; A hCT (WHO 1st International Reference Preparation of Calcitonin Hormone for Bioassay, 70/234 supplied by the National Institute for Biological Standards and Control); DhCT+PDN-21 (800 ng PDN 21 was injected with each dose of calcitonin). […] Smoothed curves were fitted to the data by eye. […] Potencies were calculated in terms of hCT over the dose ranges where the log dose response is linear, yielding values of 0.017 milliunits hCT equivalent/ng PDN-21 and 5.11 milliunits hCT equivalent/milliunit hCT in the hCT+PDN-21 group. […]

| Substance | effect on plasma phosphate [1] | enhancement of the potency of hCT ([2]; in the presence of a maximal dose of PDN-21, plasma calcium in the rat) | dose giving 50% response (ED50), plasma calcium ([2]; tail vein injection, blood after 30 min, probit transformation) [MRC milliunits] |
| --- | --- | --- | --- |
| calcitonin | lowers | – | – |
| human calcitonin [hCT] | – | five-fold | 0.71 |
